Where two headings read alike, the source gives them in different places.
Tests used:
Format in all cases: in vivo
Poa annua = assay: Herbicidal action (Example 25); details: Poa annua, read-out: percentage damage; for pest or weed control at 2000 g/ha: 2.0 kg/ha; for pest or weed control at 4000 g/ha: 4.0 kg/ha; for pest or weed control at 8000 g/ha: 8.0 kg/ha
Procedure: (§1) Paraffined paper cups having a volume of 170 cm^3 were filled with a sandy loam, and the seeds of the test plants sown therein, separated by species. (The species are also listed below.)
(§2) In the first group, treatment was effected immediately after sowing and before germination of the seeds (preemergence treatment=soil treatment). Shallow sown seeds not completely covered with soil came into contact with the active ingredients. In the second group, the plants were treated postemergence (=leaf treatment) at a growth height of from 2 to 8 cm, depending on the rate of growth and shape of the species concerned. The compounds were suspended or emulsified in water and applied with the aid of fine nozzles. The soil and plants were thoroughly sprinkler irrigated for the duration of the experiment. The cups were placed in the greenhouse and kept in the temperature range 12°-25° C. or 18°-35° C., depending on the temperature requirements of the various species. After 2 to 6 weeks the action was assessed visually on a 0 to 100 scale, 0 denoting no damage and 100 denoting plants not germinated or completely destroyed.

Solanum nigrum = assay: Herbicidal action (Example 25)
Procedure: as §1, §2

Lamium spp. = assay: Herbicidal action (Example 25)
Procedure: as §1, §2

Galium aparine = assay: Herbicidal action (Example 25); details: read-out: percentage damage
Procedure: as §1, §2

Hordeum vulgare = assay: Growth height of young cereal plants (Example 11, Table A); details: soil treatment
Description: (§3) The vessels used for the experiments were plastic pots having a volume of 1,130 cm^3 (Table A) or paraffined paper cups having a volume of 170 cm^3 (Table B). The pots and cups were filled with a sandy loam. The seeds of the test plants-separated by species-were sown shallow. Preemergence treatment (soil treatment) was effected immediately after sowing and before germination of the seeds. Seeds lying on the surface came into contact with the active ingredients. Postemergence treatment (leaf treatment) took place at an average growth height of the plants (depending on the rate of growth) of from 6 to 10 cm. The substances were suspended, emulsified or dissolved in water as diluent and applied by means of fine nozzles. The vessels were kept in the greenhouse in a temperature range of 12° C. to 25° C., and were regularly sprinkler irrigated for the duration of the experiment. The observation period was 6 to 8 weeks.

Triticum aestivum = assay: as above
Description: as §3

[1] = post-emergence, postemergence, 2.0 kg/ha
[2] = post-emergence, postemergence, 4.0 kg/ha
[3] = post-emergence, postemergence, 8.0 kg/ha
[4] = pre-emergence, preemergence, 2.0 kg/ha
[5] = pre-emergence, preemergence, 4.0 kg/ha
[6] = pre-emergence, preemergence, 8.0 kg/ha

For `CN(C)C(=O)Nc1ccc(Oc2ccccc2)cc1` [drawing 427], which pest or weed control at 2000 g/ha (Poa annua; post-emergence, postemergence) is on record?
The pest or weed control at 2000 g/ha was 30%.

What about the pest or weed control at 4000 g/ha (Poa annua; post-emergence, postemergence) of the same compound?
Its pest or weed control at 4000 g/ha is 30%.

And the pest or weed control at 8000 g/ha (Poa annua; post-emergence, postemergence)?
Its pest or weed control at 8000 g/ha is 30%.

What about the pest or weed control at 2000 g/ha (Poa annua; pre-emergence, preemergence) of the same compound?
Its pest or weed control at 2000 g/ha is 50%.

And the pest or weed control at 4000 g/ha (Poa annua; pre-emergence, preemergence)?
The pest or weed control at 4000 g/ha was 58%.

And the pest or weed control at 8000 g/ha (Poa annua; pre-emergence, preemergence)?
The pest or weed control at 8000 g/ha was 65%.

What about the percentage damage (Solanum nigrum; postemergence, 2.0 kg/ha) of the same compound?
Its percentage damage is 100 percentage damage.

And the percentage damage (Solanum nigrum; postemergence, 4.0 kg/ha)?
Its percentage damage is 100 percentage damage.

And the percentage damage (Solanum nigrum; postemergence, 8.0 kg/ha)?
Its percentage damage is 100 percentage damage.

What about the percentage damage (Solanum nigrum; preemergence, 2.0 kg/ha) of the same compound?
Its percentage damage is 75 percentage damage.

And the percentage damage (Solanum nigrum; preemergence, 4.0 kg/ha)?
The percentage damage was 80 percentage damage.

What about the percentage damage (Solanum nigrum; preemergence, 8.0 kg/ha) of the same compound?
The percentage damage was 90 percentage damage.

What about the percentage damage (Lamium spp.; postemergence, 2.0 kg/ha) of the same compound?
Its percentage damage is 75 percentage damage.

And the percentage damage (Lamium spp.; postemergence, 4.0 kg/ha)?
The percentage damage was 85 percentage damage.

What about the percentage damage (Lamium spp.; postemergence, 8.0 kg/ha) of the same compound?
Its percentage damage is 85 percentage damage.

What about the percentage damage (Lamium spp.; preemergence, 2.0 kg/ha) of the same compound?
Its percentage damage is 50 percentage damage.

What about the percentage damage (Lamium spp.; preemergence, 4.0 kg/ha) of the same compound?
Its percentage damage is 65 percentage damage.

What about the percentage damage (Lamium spp.; preemergence, 8.0 kg/ha) of the same compound?
Its percentage damage is 75 percentage damage.

And the pest or weed control at 2000 g/ha (Galium aparine; [1])?
The pest or weed control at 2000 g/ha was 0%.

What about the pest or weed control at 4000 g/ha (Galium aparine; [2]) of the same compound?
Its pest or weed control at 4000 g/ha is 0%.

What about the pest or weed control at 8000 g/ha (Galium aparine; [3]) of the same compound?
Its pest or weed control at 8000 g/ha is 0%.

And the pest or weed control at 2000 g/ha (Galium aparine; [4])?
Its pest or weed control at 2000 g/ha is 60%.

And the pest or weed control at 4000 g/ha (Galium aparine; [5])?
The pest or weed control at 4000 g/ha was 80%.

What about the pest or weed control at 8000 g/ha (Galium aparine; [6]) of the same compound?
The pest or weed control at 8000 g/ha was 75%.

Which results are given for `Clc1ccc(N2N=NC3C4CC(C5NNC45)C32)cc1` (stereo not drawn) [drawing 369]?
Growth height (Hordeum vulgare; 0.25 kg/ha): 36 cm; Growth height (Hordeum vulgare; 0.5 kg/ha): 30 cm; Growth height (Hordeum vulgare; 1.0 kg/ha): 18 cm; Growth height (Hordeum vulgare; 2.0 kg/ha): 14 cm; Growth height (Triticum aestivum; leaf treatment, 0.25 kg/ha): 36 cm; Growth height (Triticum aestivum; leaf treatment, 0.5 kg/ha): 30 cm; Growth height (Triticum aestivum; leaf treatment, 1.0 kg/ha): 28 cm; Growth height (Triticum aestivum; leaf treatment, 2.0 kg/ha): 25 cm; Growth height (Triticum aestivum; soil treatment, 0.25 kg/ha): 22 cm; Growth height (Triticum aestivum; soil treatment, 0.5 kg/ha): 12 cm; Growth height (Triticum aestivum; soil treatment, 1.0 kg/ha): 6 cm; Growth height (Triticum aestivum; soil treatment, 2.0 kg/ha): 7 cm

`Clc1ccc(N2N=NC3C4CC(C5N=NC45)C32)c(Cl)c1` (stereo not drawn) was tested. Which Growth height (Hordeum vulgare; 0.5 kg/ha) did it give?
Its Growth height is 40 cm.

What about the Growth height (Hordeum vulgare; 1.0 kg/ha) of the same compound?
The Growth height was 38 cm.

What about the Growth height (Hordeum vulgare; 2.0 kg/ha) of the same compound?
The Growth height was 53 cm.

What about the Growth height (Triticum aestivum; leaf treatment, 0.5 kg/ha) of the same compound?
The Growth height was 40 cm.

What about the Growth height (Triticum aestivum; leaf treatment, 1.0 kg/ha) of the same compound?
The Growth height was 34 cm.

What about the Growth height (Triticum aestivum; leaf treatment, 2.0 kg/ha) of the same compound?
Its Growth height is 35 cm.

And the Growth height (Triticum aestivum; soil treatment, 0.5 kg/ha)?
Its Growth height is 25 cm.

And the Growth height (Triticum aestivum; soil treatment, 1.0 kg/ha)?
The Growth height was 25 cm.

And the Growth height (Triticum aestivum; soil treatment, 2.0 kg/ha)?
Its Growth height is 20 cm.

How did the Growth height (Hordeum vulgare; 0.5 kg/ha) turn out when `FC(F)(F)c1ccc(Cl)c(N2N=NC3C4CC(C5N=NC45)C32)c1` (stereo not drawn) [drawing 361] was run?
Its Growth height is 40 cm.

What about the Growth height (Hordeum vulgare; 1.0 kg/ha) of the same compound?
The Growth height was 39 cm.

And the Growth height (Hordeum vulgare; 2.0 kg/ha)?
The Growth height was 38 cm.

What about the Growth height (Triticum aestivum; leaf treatment, 0.5 kg/ha) of the same compound?
The Growth height was 42 cm.

What about the Growth height (Triticum aestivum; leaf treatment, 1.0 kg/ha) of the same compound?
The Growth height was 27 cm.

What about the Growth height (Triticum aestivum; leaf treatment, 2.0 kg/ha) of the same compound?
The Growth height was 20 cm.

And the Growth height (Triticum aestivum; soil treatment, 0.5 kg/ha)?
Its Growth height is 16 cm.

And the Growth height (Triticum aestivum; soil treatment, 1.0 kg/ha)?
The Growth height was 15 cm.

What about the Growth height (Triticum aestivum; soil treatment, 2.0 kg/ha) of the same compound?
Its Growth height is 0 cm.

Which results are given for `CC(C)OC(=O)Nc1cccc(Cl)c1` [drawing 426]?
pest or weed control at 2000 g/ha (Poa annua; post-emergence, postemergence): 30%; pest or weed control at 4000 g/ha (Poa annua; post-emergence, postemergence): 30%; pest or weed control at 8000 g/ha (Poa annua; post-emergence, postemergence): 42%; pest or weed control at 2000 g/ha (Poa annua; pre-emergence, preemergence): 100%; pest or weed control at 4000 g/ha (Poa annua; pre-emergence, preemergence): 100%; pest or weed control at 8000 g/ha (Poa annua; pre-emergence, preemergence): 100%; percentage damage (Solanum nigrum; postemergence, 2.0 kg/ha): 22 percentage damage; percentage damage (Solanum nigrum; postemergence, 4.0 kg/ha): 22 percentage damage; percentage damage (Solanum nigrum; postemergence, 8.0 kg/ha): 38 percentage damage; percentage damage (Solanum nigrum; preemergence, 2.0 kg/ha): 85 percentage damage; percentage damage (Solanum nigrum; preemergence, 4.0 kg/ha): 85 percentage damage; percentage damage (Solanum nigrum; preemergence, 8.0 kg/ha): 90 percentage damage; percentage damage (Lamium spp.; postemergence, 2.0 kg/ha): 50 percentage damage; percentage damage (Lamium spp.; postemergence, 4.0 kg/ha): 50 percentage damage; percentage damage (Lamium spp.; postemergence, 8.0 kg/ha): 90 percentage damage; percentage damage (Lamium spp.; preemergence, 2.0 kg/ha): 72 percentage damage; percentage damage (Lamium spp.; preemergence, 4.0 kg/ha): 90 percentage damage; percentage damage (Lamium spp.; preemergence, 8.0 kg/ha): 95 percentage damage; pest or weed control at 2000 g/ha (Galium aparine; [1]): 0%; pest or weed control at 4000 g/ha (Galium aparine; [2]): 0%; pest or weed control at 8000 g/ha (Galium aparine; [3]): 10%; pest or weed control at 2000 g/ha (Galium aparine; [4]): 88%; pest or weed control at 4000 g/ha (Galium aparine; [5]): 80%; pest or weed control at 8000 g/ha (Galium aparine; [6]): 88%

What does the source list for `C=CCN(CC=C)C(=O)CCl` [drawing 428]?
pest or weed control at 2000 g/ha (Poa annua; post-emergence, postemergence): 35%; pest or weed control at 4000 g/ha (Poa annua; post-emergence, postemergence): 35%; pest or weed control at 8000 g/ha (Poa annua; post-emergence, postemergence): 40%; pest or weed control at 2000 g/ha (Poa annua; pre-emergence, preemergence): 95%; pest or weed control at 4000 g/ha (Poa annua; pre-emergence, preemergence): 98%; pest or weed control at 8000 g/ha (Poa annua; pre-emergence, preemergence): 100%; percentage damage (Solanum nigrum; postemergence, 2.0 kg/ha): 10 percentage damage; percentage damage (Solanum nigrum; postemergence, 4.0 kg/ha): 10 percentage damage; percentage damage (Solanum nigrum; postemergence, 8.0 kg/ha): 20 percentage damage; percentage damage (Solanum nigrum; preemergence, 2.0 kg/ha): 0 percentage damage; percentage damage (Solanum nigrum; preemergence, 4.0 kg/ha): 15 percentage damage; percentage damage (Solanum nigrum; preemergence, 8.0 kg/ha): 25 percentage damage; percentage damage (Lamium spp.; postemergence, 2.0 kg/ha): 0 percentage damage; percentage damage (Lamium spp.; postemergence, 4.0 kg/ha): 10 percentage damage; percentage damage (Lamium spp.; postemergence, 8.0 kg/ha): 20 percentage damage; percentage damage (Lamium spp.; preemergence, 2.0 kg/ha): 25 percentage damage; percentage damage (Lamium spp.; preemergence, 4.0 kg/ha): 60 percentage damage; percentage damage (Lamium spp.; preemergence, 8.0 kg/ha): 85 percentage damage; pest or weed control at 2000 g/ha (Galium aparine; post-emergence): 5%; pest or weed control at 4000 g/ha (Galium aparine; post-emergence): 5%; pest or weed control at 8000 g/ha (Galium aparine; post-emergence): 5%; pest or weed control at 2000 g/ha (Galium aparine; pre-emergence): 70%; pest or weed control at 4000 g/ha (Galium aparine; pre-emergence): 80%; pest or weed control at 8000 g/ha (Galium aparine; pre-emergence): 90%
